Experimental data taken from publication PMC12568586, “Mass spectrometry-guided discovery of novel GCPII inhibitor scaffolds” (Frontiers in Pharmacology, 2025).
“And” between values parts separate entries of the source, which are not always exact repeats. Identical values can stand only once. Like-named read-outs stand apart in the source and are kept apart here.

What was measured:
[1] = biological target: T1, GCPII (Homo sapiens, UniProt Q04609); experiment: dual-stream LC/MS/MS GCPII substrate cleavage (inhibition) assay; format: biochemical; parameters: purchased Sino Biological; conditions: for IC50: follow up screening, triplicate IC50 values ± standard deviation, read-out: IC50 (mass spec assay); for Max resp (100uM) / HTS max resp: in % (unit assumed); for inhibition at 10 µM: read-out: inhibition relative to the DMSO and no enzyme controls
T1 sequence (Q04609 whole entry): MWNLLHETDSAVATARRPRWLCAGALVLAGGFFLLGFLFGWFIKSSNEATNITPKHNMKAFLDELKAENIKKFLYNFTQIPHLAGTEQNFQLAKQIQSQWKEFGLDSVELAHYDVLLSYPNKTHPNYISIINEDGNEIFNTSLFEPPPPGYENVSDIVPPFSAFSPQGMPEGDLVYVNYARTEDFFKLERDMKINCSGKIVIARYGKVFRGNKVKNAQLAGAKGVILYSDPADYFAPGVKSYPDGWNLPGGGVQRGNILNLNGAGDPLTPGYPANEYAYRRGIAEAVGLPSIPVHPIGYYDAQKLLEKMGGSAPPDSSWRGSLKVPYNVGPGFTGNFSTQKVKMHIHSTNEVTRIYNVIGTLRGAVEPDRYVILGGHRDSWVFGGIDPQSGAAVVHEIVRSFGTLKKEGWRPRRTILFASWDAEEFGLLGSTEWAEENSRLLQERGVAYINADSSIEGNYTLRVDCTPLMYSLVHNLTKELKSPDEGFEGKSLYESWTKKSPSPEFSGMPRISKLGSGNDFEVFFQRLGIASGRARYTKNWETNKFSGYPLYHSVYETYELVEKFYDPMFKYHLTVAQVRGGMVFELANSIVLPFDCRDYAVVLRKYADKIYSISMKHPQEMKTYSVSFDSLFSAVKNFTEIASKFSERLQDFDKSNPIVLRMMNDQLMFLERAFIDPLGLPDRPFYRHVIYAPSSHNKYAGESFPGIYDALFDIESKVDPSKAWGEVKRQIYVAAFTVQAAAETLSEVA
Procedure: The novel high-throughput dual-stream liquid chromatography–tandem mass spectrometry method used to screen for this study was recently published ([Hoxie et al., 2024]). Briefly, a 5 μL solution containing recombinant GCPII (SinoBio) in Tris–HCl (pH 7.4) with 1 mM CoCl2 was dispensed using a BioRAPTR 2.0 Flying Reagent Dispenser (Let’s Go Robotics) into 384-well assay plates (Greiner 784,201) pre-spotted with 100 nL of compound in DMSO using an Echo 655 Acoustic Liquid Handler (Beckman). Enzyme and compound were incubated for 15 min prior to the addition of 5 μL of ^13C5 ^15N-acetylaspartylglutamate (Aldrich). After 30 min s at room temperature, reactions were quenched using 0.2 μM D3-glutamate in LC/MS-grade acetonitrile and 0.1% formic acid. A 2-min liquid chromatography method utilizing a 2.1 × 30 mm BEH Amide HILIC column (Waters) was used to resolve glutamate from NAA and NAAG. A Sciex 6,500+ Q-Trap mass spectrometer was utilized for MS/MS quantification of released glutamate in the presence of compound. The integrated peak areas were normalized against the d3-glutamate internal standard, and then degree of inhibition was calculated using replicates containing no enzyme and enzyme with equivalent volumes of DMSO. Compounds were initially screened in a 10 μL reaction volume with 10 μM (final) compound dissolved in DMSO. […] To further increase throughput and the efficiency of screening, LC/MS analysis of libraries was conducted in dual-stream mode on an LS-1 autosampler (Sound Analytics).

[2] = biological target: T2, human rGCPII (Homo sapiens, UniProt Q04609); experiment: orthogonal radioenzymatic GCPII inhibition assay (3H-NAAG); format: biochemical; conditions: NAA[3H]G 30 nM, GCPII 40 pM, 37 °C, 25 min
T2 construct: purchased Sino Biological
T2 sequence (Q04609 whole entry): as above
Procedure: Radioenzymatic assay using ^3H-NAAG was performed as previously described ([Barinka et al., 2002]). Briefly, a 50 μL reaction mixture containing NAA [^3H]G (30 nM, 49 μCi/nmol) and GCPII (40 pM), in Tris-HCl (pH 7.4, 40 mM) with 1 mM CoCl2 was incubated at 37 °C for 25 min and stopped with 50 μL ice-cold sodium phosphate buffer (pH 7.5, 0.1 M). AG1X8 ion-exchange resin was used to separate cleaved [^3H]glutamate, and the flowthrough was transferred to solid scintillator-coated 96-well plates (Packard) and allowed to dry. Radioactivity was measured by a Topcount NXT from Packard. Each compound was run in duplicate, and 6–8-point dose-response curves were generated.

[3] = test system: GCPII; conditions: prior art compound, value given when selected for assay validation; no reference given; cited from earlier work
[4] = biological target: T3, recombinant human (rh) GCPII (Homo sapiens, UniProt Q04609); experiment: nanoDSF thermal shift assay; format: binding; conditions: for Tm of GCPII in the presence of compound: compound at 250 μM, DMSO Tm 78.93 °C; for shift in Tm (Δ): compound at 25 μM, vs DMSO
T3 construct: purchased Sino Biological
T3 sequence (Q04609 whole entry): as above
Procedure: nanoDSF experiments were performed to assess the thermal stability of GCPII in the presence of various inhibitors. Protein samples were prepared at a concentration of 0.15 mg/mL in 50 mM Tris-HCl (pH 7.4), 1 mM CoCl2, 150 mM NaCl, and 0.01% Tween-20. Samples were incubated at 25 °C for 30 min prior to measurement with shaking at 1,000 rpm. Thermal unfolding was monitored using a Prometheus Panta nanoDSF instrument using standard capillaries (NanoTemper Technologies). The intrinsic fluorescence at 350 nm and 330 nm was recorded as a function of temperature, and the fluorescence ratio (350/330 nm) and its first derivative were used to track protein unfolding. A thermal gradient from 25 °C to 95 °C was applied at a rate of 0.5 °C per minute. The melting temperature (Tm) was determined from the global maximum of the first derivative of the fluorescence ratio curve. Each condition was tested in at least three independent replicates, and data was analyzed using PR. ThermControl software (NanoTemper Technologies). One-way ANOVA with multiple comparisons to the DMSO vehicle control group was used to determine significant shifts from the control thermal unfolding profile.

[5] = pharmacokinetic and brain penetration study in mice; format: in vivo; conditions: 100 mg/kg IP, C57BL/6 mice
Procedure: Pharmacokinetic studies in mice were approved by the Animal Care and Use Committee at Johns Hopkins University. Male C57BL/6 mice (25–30 g) were housed under a 12-h light-dark cycle with ad libitum access to food and water. Cefsulodin was administered intraperitoneally (IP) at a dosage of 100 mg/kg prepared freshly (5% DMSO and 95% HEPES saline v/v) with a dosing volume of 10 mL/kg. Blood and brain tissue samples were collected at 0.083–3 h post-administration (n = 3 per time point). Blood was obtained via cardiac puncture, and plasma was separated by low-speed centrifugation at 3,000 × g for 15 min and stored at −80 °C. Brain tissues were harvested, and immediately frozen in liquid nitrogen, and stored at −80 °C until analyses.
As cefsulodin is known to be unstable, plasma and brain tissue samples were prepared with the addition of 2% formic acid in water to adjust the pH to 5 ([Lecaillon et al., 1982]). For quantification of cefsulodin, plasma samples were diluted 10-fold with blank plasma, and a total of 40 μL of plasma was extracted using a protein precipitation method by adding methanol containing the internal standard (diclofenac, 1 μM). The mixture was vortex-mixed for 30 s and centrifuged at 14,000 rpm for 5 min at 4 °C. Brain tissues were homogenized in methanol at a 1:5 (w/v) ratio. A 50 μL aliquot of the homogenate was precipitated with methanol containing the internal standard, vortex-mixed, and centrifuged at 14,000 rpm for 5 min at 4 °C. A 150 μL aliquot of the supernatant was transferred to a polypropylene vial sealed with a Teflon cap and analyzed by liquid chromatography with tandem mass spectrometric methods (LC-MS/MS) as described below.
Cefsulodin concentrations in mouse plasma and brain were measured using a Shimadzu Nexera X2 LC-40D system (Shimadzu Corporation, Kyoto, Japan) coupled with an API 6500 triple quadrupole mass spectrometer (AB Sciex, Redwood City, CA, United States). […] Quantitation was performed in multiple reaction monitoring (MRM) mode using cefsulodin (533.03 > 123.03) and diclofenac as the internal standard (296.13 > 215.03) ([Zhou et al., 2024]; [Park et al., 2024]). Calibration curves were constructed over the range of 0.01–100 nmol/mL or nmol/g for plasma and brain, respectively.
Plasma concentrations (nmol/mL) and brain concentrations (nmol/g) were determined, and mean concentration-time profiles were plotted for pharmacokinetic analysis. Non-compartmental analysis was performed using the Phoenix WinNonlin software version 8.4 (Certara United States, Inc., Princeton, NJ) to calculate pharmacokinetic parameters, including the maximum concentration (Cmax), time to Cmax (Tmax), and area under the concentration-time curve (AUC0–t).

[6] = biological target: T1, GCPII; experiment: mode of inhibition study (radioenzymatic assay, varied NAA[3H]G, Michaelis-Menten analysis); conditions: for Ki: Ki (secondary plot Km app/Vmax vs [inhibitor], −X intercept), 40 pM GCPII; for mode of inhibition: NAAG as substrate
[7] = maximum response at 100uM, dose response
[8] = library screening, seven-point dose response, read-out: AC50

Row | Structure (SMILES) | IC50 [1] [nM] | IC50 [2] [nM] | Max resp (100uM) [1, 7] | HTS max resp ([1]; primary high-throughput screen) | inhibition at 10 µM ([1]; single point screen at 10 µM) [%] | other results
1 | O=C1OC(c2ccc(O)c(S(=O)(=O)O)c2)(c2ccc(O)c(S(=O)(=O)O)c2)c2c(Br)c(Br)c(Br)c(Br)c21 [Sulfobromophthalein] | 400 ± 100 | 230 ± 100 |  |  |  | 
2 | O=C(O)CCC(CP(=O)(O)O)C(=O)O (stereo not shown) [2-PMPA, 2-(phosphonomethyl)pentanedioic acid] |  |  | −98.19 | −100.00 | ≥ 50 | IC50 [3]: […]; Tm of GCPII in the presence of compound [4]: 90.70 °C
3 | O=C(O)C1=C(CSc2nnnn2CS(=O)(=O)O)CS[C@@H]2[C@H](NC(=O)[C@H](O)c3ccccc3)C(=O)N12 [Cefonicid sodium] | 32000 ± 2000 | 4900 ± 2000 |  |  |  | 
4 | NC(=O)c1cc[n+](CC2=C(C(=O)O)N3C(=O)[C@@H](NC(=O)[C@@H](c4ccccc4)S(=O)(=O)[O-])[C@H]3SC2)cc1 [Cefsulodin] | 3600 ± 300 | 2000 ± 100 | −98.19 | −92.18 |  | brain penetration index [5]: low; brain Cmax ([5]; brain): 4 µM and 4.9 µM; brain exposure (AUC) ([5]; brain): 4.36 ± 1.12 nmol·h/g; time of brain Cmax ([5]; brain, post-dose): 30 min; AC50 [1, 8]: 3900 nM; Ki [6]: 2500 nM and 2000 nM; mode of inhibition [6]: competitive, active-site inhibition; shift in Tm (Δ) [4]: 0.65 (±0.07) °C
5 | CO[C@@]1(NC(=O)C2SC(=C(C(N)=O)C(=O)O)S2)C(=O)N2C(C(=O)O)=C(CSc3nnnn3C)CS[C@@H]21 (stereo partly shown) [Cefotetan] | 9700 ± 3000 | 2000 ± 1000 |  |  |  | 
6 | CN(Cc1cnc2nc(N)nc(N)c2n1)c1ccc(C(=O)N[C@@H](CCC(=O)O)C(=O)O)cc1 [Methotrexate] |  |  |  |  | ≥ 50 | 
7 | CC1(C)C(/C=C/C=C/C=C/C=C2\N(CCCCS(=O)(=O)O)c3ccc4ccccc4c3C2(C)C)=[N+](CCCCS(=O)(=O)[O-])c2ccc3ccccc3c21 [Indocyanine green] | 11000 ± 200 | 1900 ± 300 |  |  |  | 
8 | Nc1nc(=O)c2nc(CNc3ccc(C(=O)N[C@@H](CCC(=O)O)C(=O)O)cc3)cnc2[nH]1 [Folic Acid] |  |  |  |  | ≥ 50 | 
9 | O=S(=O)(O)c1ccc2c(/N=N/c3ccc(S(=O)(=O)O)c4ccccc34)c(O)c(S(=O)(=O)O)cc2c1 [Amaranth] | 1500 ± 300 | 300 ± 10 | −101.68 | −101.93 |  | AC50 [1, 8]: 2500 nM; Ki [6]: 1100 ± 60 nM; mode of inhibition [6]: non-competitive inhibition; shift in Tm (Δ) [4]: 0.76 °C
10 | N[C@@H](Cn1oc(=O)[nH]c1=O)C(=O)O [L-Quisqualic acid] |  |  |  |  |  | IC50 [3]: 10000 nM; AC50 [1]: 7900 nM; HTS max resp [1]: −93.07; Max resp (100uM) [1]: −91.35; inhibition at 10 µM [1]: ≥ 50%
11 | Cc1cc(-c2ccc(/N=N/c3c(S(=O)(=O)O)cc4cc(S(=O)(=O)O)cc(N)c4c3O)c(C)c2)ccc1/N=N/c1c(S(=O)(=O)O)cc2cc(S(=O)(=O)O)cc(N)c2c1O [Trypan blue] | 2100 ± 400 | 210 ± 50 |  |  |  | 
12 | O=C(O)CCC(CCCS)C(=O)O (stereo not shown) [2-MPPA, 2-(3-mercaptopropyl)pentanedioic acid] |  |  | −96.75 | −100.00 | ≥ 50 | IC50 [3]: 90 nM; Tm of GCPII in the presence of compound [4]: 79.25 °C
13 | NCc1ccccc1CC(=O)N[C@@H]1C(=O)N2C(C(=O)O)=C(CSc3nnnn3CC(=O)O)CS[C@H]12 [Ceforanide] | 29000 ± 400 | 14000 ± 6000 |  |  |  | 
